Measurements from US20170073337A1, “DIHYDROTHIAZINE AND DIHYDROOXAZINE DERIVATIVES HAVING BACE1 INHIBITORY ACTIVITY” (Shionogi & Co., Ltd., priority 2014, published 2017).
In brackets after ≈: the same amount, converted by molar mass. Read-outs that look alike come from different tables or passages of the source.

Assays:
[1] = system: Aβ production in neuroblastoma SH-SY5Y cells (SH/APPwt); assay: β-amyloid (Aβ) production inhibitory effect in cell: 384-well; format: cell-based; conditions: Homo sapiens, Assay format 384-well
Procedure: Neuroblastoma SH-SY5Y cells (SH/APPwt) with human wild-type β-APT excessively expressed therein were prepared at 4×10^5 cells/mL, and 50 μl portions thereof were inoculated into each well of a 384-well culture plate (Corning) added 0.5 μl of the test compound of the present invention (DMSO solution). The final DMSO concentration was 1%, and the amount of the cell culture was 50 μl. After the incubation was performed for 21 hours from the cell seeding, 5 μl of the culture supernatant was collected from each fraction. The amount of the Aβ in each fraction was measured.
The Aβ amount was measured as follows. 5 μl of a homogeneous time resolved fluoresrenee (HTRF) measurement reagent (Amyloid β1-40 peptide; CIS bio international) and 5 μl of the culture supernatant were put into a 384′well plate (a black plate: Corning) and mixed with each other, and then left standing overnight at 4° C. while the light was shielded. Then, the fluorescence intensity (620 nm and 665 nm) was measured with EnViston (Perkin Elmer life sciences).

CYP1A2 = molecular target: T1, CYP1A2 (Homo sapiens, UniProt P05177); assay: CYP inhibition test (CYP1A2); format: in vitro ADME; conditions: pooled human liver microsomes; 7-ethoxyresorufin O-deethylation
T1 construct: The commercially available pooled human liver microsomes are used as an enzyme resource; from tissue; host or cells: pooled human liver microsomes
T1 sequence (P05177 1-516): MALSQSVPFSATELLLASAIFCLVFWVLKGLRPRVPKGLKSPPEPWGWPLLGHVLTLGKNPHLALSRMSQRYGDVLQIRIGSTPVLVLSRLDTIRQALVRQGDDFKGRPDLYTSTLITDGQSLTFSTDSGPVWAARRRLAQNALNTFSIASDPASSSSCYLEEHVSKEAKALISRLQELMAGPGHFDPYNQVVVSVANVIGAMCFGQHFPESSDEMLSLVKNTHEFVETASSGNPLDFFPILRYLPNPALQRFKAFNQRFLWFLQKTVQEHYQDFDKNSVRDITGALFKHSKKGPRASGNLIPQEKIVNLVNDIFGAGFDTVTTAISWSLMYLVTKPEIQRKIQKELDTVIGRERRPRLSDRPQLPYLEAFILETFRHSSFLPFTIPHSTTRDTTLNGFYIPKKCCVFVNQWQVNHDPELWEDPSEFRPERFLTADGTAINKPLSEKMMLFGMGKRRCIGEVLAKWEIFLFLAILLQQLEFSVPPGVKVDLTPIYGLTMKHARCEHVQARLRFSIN
Source text: (§1) The CYP inhibition test is a test to assess the inhibitory effect of a compound of the present invention towards typical substrate metabolism reactions on CYP enzymes in human liver microsomes. The marker reactions on human main five CYP enzymes (CYP1A2, 2C9, 2C19, 2D6, and 3A4) are used as follows: 7-ethoxyresorufin O-deethylation (CYP1A2), tolbutamide methyl-hydroxylation (CYP2C9), mephenytoin 4′-hydroxylation (CYP2C19), dextromethorphan O-demethylation (CYP2D6), and terfenadine hydroxylation (CYP3A4). The commercially available pooled human liver microsomes are used as an enzyme resource.
(§2) The reaction conditions were as follows: substrate, 0.5 μmol/L ethoxyresorufin (CYP1A2), 100 μmol/L tolbutamide (CYP2C9), 50 μmol/L, S-mephenytoin (CYP2C19), 5 μmol/L dextromethorphan (CYP2D6), 1 μmol/L terfenadine (CYP3A4): reaction time, 15 minutes: reaction temperature, 37° C.; enzyme, pooled human liver microsomes 0.2 mg protein/mL; concentrations of the compound of the present invention, 1, 5, 10, 20 μmol/L (four points).
(§3) Five kinds of substrates, human liver microsomes, and a compound solution of the present invention in […] Hepes buffer were added to a 96-well plate at the composition as described above as a reaction solution. NADPH as a cofactor was added to this 96-well plate in order to initiate metabolism reactions. After the incubation at 37° C.for […], a methanol/acetonitrile=1/1 (v/v) solution was added to stop the reaction. After the centrifugation at 3000 rpm for 15 minutes, resorufin (CYP1A2 metabolite) in the supernatant was quantified by a fluorescent plate reader, and hydroxytolbutamide (CYP2C9 metabolite), 4′-hydroxymephenytoin (CYP2C19 metabolite), dextrorphan (CYP2D6 metabolite), and terfenadine alcohol metabolite (CYP3A4 metabolite) in the supernatant were quantified by LC/MS/MS.
(§4) The sample adding DMSO to a reaction system instead of compound of the present invention solution was adopted as a control (100%) because DMSO was used as a solvent to dissolve a compound of the present invention. Remaining activity (%) was calculated at each concentration of a compound of the present invention, and IC50 value was calculated by reverse presumption by a logistic model using a concentration and an inhibition rate.

CYP2C9 = molecular target: T2, CYP2C9 (Homo sapiens, UniProt P11712); assay: CYP inhibition test (CYP2C9); format: in vitro ADME; conditions: pooled human liver microsomes; tolbutamide methyl-hydroxylation
T2 construct: The commercially available pooled human liver microsomes are used as an enzyme resource; from tissue; host or cells: pooled human liver microsomes
T2 sequence (P11712 whole entry): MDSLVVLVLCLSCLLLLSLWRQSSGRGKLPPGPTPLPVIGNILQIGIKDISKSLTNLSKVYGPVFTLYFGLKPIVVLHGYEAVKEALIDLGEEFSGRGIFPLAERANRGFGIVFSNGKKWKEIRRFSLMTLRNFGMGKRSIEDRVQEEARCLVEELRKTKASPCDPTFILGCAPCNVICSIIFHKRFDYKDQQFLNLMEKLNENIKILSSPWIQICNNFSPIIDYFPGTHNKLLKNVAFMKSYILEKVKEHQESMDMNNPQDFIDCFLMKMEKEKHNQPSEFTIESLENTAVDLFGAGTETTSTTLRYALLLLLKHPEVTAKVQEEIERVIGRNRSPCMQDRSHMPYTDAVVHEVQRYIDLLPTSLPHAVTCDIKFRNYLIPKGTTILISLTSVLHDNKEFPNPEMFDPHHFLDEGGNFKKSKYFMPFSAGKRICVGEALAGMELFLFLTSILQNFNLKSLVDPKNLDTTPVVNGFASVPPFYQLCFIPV
Source text: as §1, §2, §3, §4

CYP2C19 = molecular target: T3, CYP2C19 (Homo sapiens, UniProt P33261); assay: CYP inhibition test (CYP2C19); format: in vitro ADME; conditions: pooled human liver microsomes; mephenytoin 4′-hydroxylation
T3 construct: The commercially available pooled human liver microsomes are used as an enzyme resource; from tissue; host or cells: pooled human liver microsomes
T3 sequence (P33261 whole entry): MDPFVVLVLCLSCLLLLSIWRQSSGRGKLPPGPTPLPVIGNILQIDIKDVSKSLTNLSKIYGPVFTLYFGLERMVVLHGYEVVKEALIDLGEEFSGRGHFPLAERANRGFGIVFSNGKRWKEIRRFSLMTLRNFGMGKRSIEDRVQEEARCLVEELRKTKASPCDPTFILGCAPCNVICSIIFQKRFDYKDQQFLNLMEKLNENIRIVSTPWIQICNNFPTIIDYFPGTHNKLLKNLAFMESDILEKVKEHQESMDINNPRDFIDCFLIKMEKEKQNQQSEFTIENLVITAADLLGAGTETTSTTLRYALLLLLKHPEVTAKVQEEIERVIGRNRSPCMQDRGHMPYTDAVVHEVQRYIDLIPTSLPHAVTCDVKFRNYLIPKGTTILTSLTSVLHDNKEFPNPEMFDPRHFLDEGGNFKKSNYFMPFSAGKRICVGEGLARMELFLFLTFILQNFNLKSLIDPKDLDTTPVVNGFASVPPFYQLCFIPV
Source text: as §1, §2, §3, §4

CYP3A4 = molecular target: T4, CYP3A4 (Homo sapiens, UniProt P08684); assay: CYP inhibition test (CYP3A4); format: in vitro ADME; conditions: pooled human liver microsomes; terfenadine hydroxylation
T4 construct: The commercially available pooled human liver microsomes are used as an enzyme resource; from tissue; host or cells: pooled human liver microsomes
T4 sequence (P08684 whole entry): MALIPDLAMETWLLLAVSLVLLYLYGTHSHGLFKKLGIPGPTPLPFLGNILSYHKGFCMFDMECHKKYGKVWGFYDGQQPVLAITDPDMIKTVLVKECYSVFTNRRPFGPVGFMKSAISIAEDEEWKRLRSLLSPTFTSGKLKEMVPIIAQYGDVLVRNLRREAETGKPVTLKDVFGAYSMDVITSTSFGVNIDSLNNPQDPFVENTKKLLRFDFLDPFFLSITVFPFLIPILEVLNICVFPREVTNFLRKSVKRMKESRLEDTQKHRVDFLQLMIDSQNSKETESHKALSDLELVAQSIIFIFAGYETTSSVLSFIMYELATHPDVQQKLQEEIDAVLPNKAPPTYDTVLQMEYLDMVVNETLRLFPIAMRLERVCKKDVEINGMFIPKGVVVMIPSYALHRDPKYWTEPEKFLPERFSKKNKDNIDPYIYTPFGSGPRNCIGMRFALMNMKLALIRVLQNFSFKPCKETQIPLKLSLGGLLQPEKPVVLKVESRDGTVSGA
Source text: as §1, §2, §3, §4

Solubility test = format: physicochemical; conditions: for solubility kinetic at 1 h: kinetic from dmso stock; for solubility kinetic at 16 h: solubility in JP 2nd fluid B, 1% DMSO, *2: shaken for 1 hour at room temperature
Procedure: A 10 mmol/L solution of the compound was prepared with DMSO, and 2 μL of the compound of the present invention solution was added, respectively, to 198 μL of JP 1st fluid (water was added to 2.0 g of sodium chloride and 7.0 ml, of hydrochloric acid to reach 1000 mL) and JP 2nd fluid (See Table 4). The mixture was left standing for 16 hours at 25° C. or shaken for 1 hour at ruom temperature, and the mixture was vacuum-filtered. The […] was ten or one hundred-fold diluted with metbanol/water=1/1 (v/v) or MeCN/MeOH/H2O(=1/1/2), and the compound concent ration in the filtrate was measured with LC/MS or solid phase extraction (SPE)/MS by the absolute calibration method.

[2] = molecular target: T5, human ether-a-go-go related gene (hERG) channel (Homo sapiens, UniProt Q12809); assay: hERG test; format: cell-based; conditions: % inhibition of IKr tail peak current at 3 uM; CHO cells expressing hERG
T5 construct: expressed in transfected cells; host or cells: CHO cells
T5 sequence (Q12809 whole entry): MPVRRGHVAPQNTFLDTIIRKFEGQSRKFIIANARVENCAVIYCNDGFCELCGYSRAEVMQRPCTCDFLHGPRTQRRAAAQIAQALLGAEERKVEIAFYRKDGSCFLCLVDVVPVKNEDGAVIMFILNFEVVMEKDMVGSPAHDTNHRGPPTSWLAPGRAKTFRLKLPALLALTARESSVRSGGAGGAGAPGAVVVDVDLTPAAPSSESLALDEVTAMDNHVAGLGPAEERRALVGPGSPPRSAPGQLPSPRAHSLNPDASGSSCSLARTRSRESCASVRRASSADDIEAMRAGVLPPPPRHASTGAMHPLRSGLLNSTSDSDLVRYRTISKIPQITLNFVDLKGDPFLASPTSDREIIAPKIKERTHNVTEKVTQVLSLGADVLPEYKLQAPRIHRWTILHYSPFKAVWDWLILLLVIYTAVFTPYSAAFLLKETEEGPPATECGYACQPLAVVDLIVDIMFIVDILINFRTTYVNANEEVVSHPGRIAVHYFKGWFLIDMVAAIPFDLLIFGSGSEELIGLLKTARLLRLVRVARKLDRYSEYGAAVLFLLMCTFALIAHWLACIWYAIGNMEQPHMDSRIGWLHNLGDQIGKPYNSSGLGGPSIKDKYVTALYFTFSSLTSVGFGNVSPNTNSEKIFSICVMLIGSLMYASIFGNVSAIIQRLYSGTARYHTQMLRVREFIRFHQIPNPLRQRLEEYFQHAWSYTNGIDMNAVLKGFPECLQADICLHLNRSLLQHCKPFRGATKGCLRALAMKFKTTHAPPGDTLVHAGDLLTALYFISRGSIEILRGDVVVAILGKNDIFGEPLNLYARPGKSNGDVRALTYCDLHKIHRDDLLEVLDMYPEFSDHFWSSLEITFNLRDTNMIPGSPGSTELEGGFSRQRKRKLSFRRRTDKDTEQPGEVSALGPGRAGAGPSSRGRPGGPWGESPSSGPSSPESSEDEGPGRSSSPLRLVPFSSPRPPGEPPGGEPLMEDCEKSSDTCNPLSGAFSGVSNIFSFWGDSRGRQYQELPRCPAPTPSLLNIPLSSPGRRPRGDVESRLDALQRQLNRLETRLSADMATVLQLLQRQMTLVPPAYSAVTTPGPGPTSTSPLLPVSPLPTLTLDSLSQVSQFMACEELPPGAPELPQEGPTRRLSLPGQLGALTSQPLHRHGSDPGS
Source text: For the purpose of assessing risk of an electrocardiogram QT interval prolongation, effects on delayed rectifier K+ current (IKr), which plays an important role in the ventricular repolarization process of the compound of the present invention, was studied using CHO cells expressing human ether-a-go-go related gene (hERG) channel.
A cell was retained at a membrane potential of […] by whole cell patch clamp method using an automated patch clamp system (QPatch:Sophion Bioscience A/S). After application of leak potential at −50 mV, IKr induced by depolarization pulse stimulation at +20 mV for 2 seconds and, further, repolarization pulse stimulation at −50 mV for 2 seconds was recorded.

Recombinant human BACE1 = molecular target: T6, Recombinant human BACE1 (Homo sapiens, UniProt P56817); assay: Assay of BACE1 inhibitory activity: 384-well; format: biochemical; conditions: Assay format 384-well
T6 construct: purchased R&D Systems
T6 sequence (P56817 46-501): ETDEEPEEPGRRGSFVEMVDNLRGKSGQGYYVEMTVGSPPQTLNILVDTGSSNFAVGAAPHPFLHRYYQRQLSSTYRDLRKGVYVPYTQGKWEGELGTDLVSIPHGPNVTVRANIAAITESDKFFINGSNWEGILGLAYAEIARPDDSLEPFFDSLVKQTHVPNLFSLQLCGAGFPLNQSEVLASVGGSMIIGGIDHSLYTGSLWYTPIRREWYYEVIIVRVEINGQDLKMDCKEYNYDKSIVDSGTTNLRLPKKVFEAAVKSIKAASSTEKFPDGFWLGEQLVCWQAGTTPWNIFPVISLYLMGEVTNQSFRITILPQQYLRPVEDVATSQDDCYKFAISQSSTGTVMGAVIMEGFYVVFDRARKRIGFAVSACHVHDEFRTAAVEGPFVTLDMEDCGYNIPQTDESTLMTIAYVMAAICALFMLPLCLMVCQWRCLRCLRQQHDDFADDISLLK
Procedure: 5 μL of substrate peptide solution (Biotin-XSEVNLDAEFRHDSGC-Eu: X=ε-amino-n-capronic acid, Eu=Europium eryplate) was added to each well of 384-well plate (a black plate: Corning), and after addition of 0.1 μl of the compound of the present invention (DMSO solution) and 5 μl of Recombinant human BACE1 (R&D Systems), the reaction mixture was incubated at 25° C. for 2 hours. The substrate peptide was synthesized by reacting Cryptate TBPCOOH mono SMP (CIS bio international) with Biotin-XSEVNLDAEFRHDSGC (Peptide Institute, Inc.).
After the incubation for reaction, 10 μl of 8.0 μg/ml Streptavidin-XL665 (CIS bio International) dissolved in phosphate buffer (150 mmol/L K2HPO4-KH2PO4, pH 7.0, 0.008% Triton X-100, 0.8 mol/L KF) was added to each well and left stand at 25° C. for 30 minutes.

Metabolic stability test = format: in vitro ADME; conditions: human liver microsomes, 37° C., 30 minutes, NADPH
Procedure: Using a commercially available pooled human liver microsomes, a compound of the present invention was reacted for a constant time, a remaining rate was calculated by comparing a reacted sample and an unreacted sample, thereby, a degree of metabolism in liver was assessed.
A reaction was performed (oxidative reaction) at 37° C. for 0 minute or 30 minutes in the presence of 1 mmol/L NADPH in 0.2 mL of a buffer (60 mmol/L Tris-HCl pH 7.4, 150 mmol/L potassium chloride, 10 mmol/L magnesium chloride) containing 0.5 mg protein/mL of human liver microsomes. After the reaction, 50 μL of the reaction solution was added to 100 μL of a methanol/acetonltrile=1/1 (v/v), mixed and centrifuged at 3000 rpm for 15 minutes. The compound of the present invention in the supernatant was quantified by LC/MS/MS or solid phase extraction (SPE)/MS, and a remaining amount of the compound of the present invention after the reaction area calculated, letting a compound amount at 0 minute reaction time to be 100%.

[3] = JP 1st fluid, pH 1.2, simulated gastric fluid, read-out: JP1
[4] = JP 2nd fluid B, pH 6.8, aqueous buffer, read-out: JP2_μM

| Compound | IC50 [1] [nM] | IC50 (CYP1A2) [nM] | IC50 (CYP2C9) [nM] | IC50 (CYP2C19) [nM] | IC50 (CYP3A4) [nM] | solubility kinetic at 1 h (Solubility test; [3]) [µM] | solubility kinetic at 16 h (Solubility test; read-out: JP2_μM) [µM] | IC50 (Recombinant human BACE1) [nM] | remaining % (Metabolic stability test) [%] | solubility kinetic at 1 h (Solubility test; [4]) [µM] | hERG_3 uM_% [2] [%] |
| --- | --- | --- | --- | --- | --- | --- | --- | --- | --- | --- | --- |
| CCOc1cnc(C(=O)Nc2ccc(F)c([C@@]3(C)N=C(N)S[C@H](C)[C@@H]3F)c2)cn1 [Compound I-84] | 2.3 | ≥ 20000 |  | ≥ 20000 |  | > 50 |  | 12.9 |  | 49.4 (≈ 20.8 µg/mL) | 28.8 |
| COc1ccc(C(=O)Nc2ccc(F)c([C@@]3(C)N=C(N)O[C@H](C(F)(F)C4CC4)[C@@H]3F)c2)nc1 [Compound I-93] | 28 | ≥ 20000 |  | ≥ 20000 |  | > 50 |  | 44.5 | 82.2 | 6.1 (≈ 2.85 µg/mL) |  |
| C[C@]1(c2cc(NC(=O)c3cnc(OCF)cn3)ccc2F)N=C(N)O[C@H](C2(F)CC2)[C@@H]1F [Compound I-94] | 3.5 |  |  |  |  |  |  |  |  |  |  |
| COc1cnc(C(=O)Nc2ccc(F)c([C@@]3(C)N=C(N)O[C@H](C4(F)CC4)[C@@H]3F)c2)cn1 [Compound I-97] | 2.5 | ≥ 20000 |  | ≥ 20000 | ≥ 20000 | > 50 | >50.0 | 10.5 |  |  |  |
| COc1ccc(C(=O)Nc2ccc(F)c([C@@]3(C)N=C(N)O[C@H](C4(F)CC4)[C@@H]3F)c2)nc1 [Compound I-100] | 13 | ≥ 20000 |  | ≥ 20000 | ≥ 20000 | > 50 | >50.0 | 26 | 60.2 |  |  |

These reach a lower IC50 [1]. Values come first.

| IC50 [1] [nM] | IC50 (CYP1A2) [nM] | IC50 (CYP2C9) [nM] | IC50 (CYP2C19) [nM] | IC50 (CYP3A4) [nM] | solubility kinetic at 1 h (Solubility test; [3]) [µM] | solubility kinetic at 16 h (Solubility test; read-out: JP2_μM) [µM] | IC50 (Recombinant human BACE1) [nM] | remaining % (Metabolic stability test) [%] | solubility kinetic at 1 h (Solubility test; [4]) [µM] | Compound | hERG_3 uM_% [2] [%] |
| --- | --- | --- | --- | --- | --- | --- | --- | --- | --- | --- | --- |
| 0.53 | ≥ 20000 | ≥ 20000 | ≥ 20000 | ≥ 10000 | > 50 | >50 |  |  |  | C[C@]1(c2cc(NC(=O)c3cnc(OCF)cn3)ccc2F)N=C(N)SCC12CC(F)(F)C2 [Compound I-56] | 37.6 |
| 1.3 | ≥ 20000 | ≥ 20000 | ≥ 20000 | ≥ 10000 | > 50 | >50 | 15.4 | 71.5 |  | C[C@]1(c2cc(NC(=O)c3ccc(F)cn3)ccc2F)N=C(N)SCC12CC(F)(F)C2 [Compound I-61] |  |
| 0.41 | ≥ 20000 |  | ≥ 20000 | ≥ 10000 | > 50 |  | 11.6 |  | 9.1 (≈ 3.91 µg/mL) | CC[C@H]1SC(N)=N[C@](C)(c2cc(NC(=O)c3ncc(C#N)cc3C)ccc2F)[C@H]1F [Compound I-68] |  |
| 0.42 |  |  |  | ≥ 10000 | > 50 | >50 | 9.24 | 77.6 |  | CC[C@H]1SC(N)=N[C@](C)(c2cc(NC(=O)c3ccc(C#N)cn3)ccc2F)[C@H]1F [Compound I-69] |  |
| 1 | ≥ 20000 |  | ≥ 20000 | ≥ 20000 | > 50 | >50 | 8.27 | 81 |  | COC[C@H]1SC(N)=N[C@](C)(c2cc(NC(=O)c3ccc(C#N)cn3)ccc2F)[C@H]1F [Compound I-92] |  |
| 0.97 | ≥ 20000 |  | ≥ 20000 | ≥ 20000 | 48.4 (≈ 19.9 µg/mL) |  | 10.3 | 64.9 | > 50 | [2H]C([2H])([2H])Oc1cnc(C(=O)Nc2ccc(F)c([C@@]3(C)N=C(N)S[C@H](C)[C@@H]3F)c2)cn1 [Compound I-111] |  |
